The target in one assay is T1, 2C19 (Homo sapiens, UniProt P33261).
T1 construct: Human liver microsomes (Corning Gentest, Cat No. 452161, Lot No. 6123001, 33 Donors); tissue Corning Gentest 452161; host or cells: human liver microsomes, pool of 33 donors
Nature of the assay: Inhibition of human liver microsomal P450 subenzyme CYP2C19. The note with it: human liver microsomes, (S)-mephenytoin metabolic site, 30 minutes incubation. The assay is classed as in vitro ADME. On the procedure:
(§1) The inhibition effect of the compound of the present invention on the enzymatic activity of human liver microsomal P450 subenzymes CYP2C9 and 2C19 was determined by the following experimental method.
(§2) 6. CYP probe substrate for 2C9 (Diclofenac/4 μM, SIGMA, Cat No. D6899-10G) and CYP probe substrate for 2C19 ((S)-Mephenytoin/20 μM, J&K Scientific Ltd., CatNo. 303768); positive control inhibitor for 2C9 ([…], SIGMA, Cat No. 526-08-9) and positive control inhibitor for 2C19 (Ticlopidine, SIGMA, Cat No. T6654-1G).
(§3) 100 mM PBS buffer solution was formulated. 2.5 mg/mL microsome solution, 15 mM MgCl2 solution and 5 mM NADPH solution were formulated with the buffer solution. 30 mM stock solution was diluted with DMSO into a serial solution I with concentrations of 10 mM, 3 mM, 1 mM, 0.3 mM, 0.1 mM, 0.03 mM, […] and 0 mM. The above serial solution I was diluted for 200 times with the phosphate buffer solution (PBS) to obtain a serial test solution II (150, 50, 15, 5, 1.5, 0.15, 0.015, 0 μM). […]
(§4) The data were calculated by Graphpad Prism to obtain the IC50 values of the compound for the diclofenac metabolic site of CYP2C9 and (S)-mephenytoin metabolic site of 2C19. which are shown in Table 3.

For the next assay, the target named is T2, CYP2C9 (Homo sapiens, UniProt P11712).
T2 construct: Human liver microsomes (Corning Gentest, Cat No. 452161, Lot No. 6123001, 33 Donors); tissue Corning Gentest 452161; host or cells: human liver microsomes, pool of 33 donors
T2 sequence (P11712 whole entry): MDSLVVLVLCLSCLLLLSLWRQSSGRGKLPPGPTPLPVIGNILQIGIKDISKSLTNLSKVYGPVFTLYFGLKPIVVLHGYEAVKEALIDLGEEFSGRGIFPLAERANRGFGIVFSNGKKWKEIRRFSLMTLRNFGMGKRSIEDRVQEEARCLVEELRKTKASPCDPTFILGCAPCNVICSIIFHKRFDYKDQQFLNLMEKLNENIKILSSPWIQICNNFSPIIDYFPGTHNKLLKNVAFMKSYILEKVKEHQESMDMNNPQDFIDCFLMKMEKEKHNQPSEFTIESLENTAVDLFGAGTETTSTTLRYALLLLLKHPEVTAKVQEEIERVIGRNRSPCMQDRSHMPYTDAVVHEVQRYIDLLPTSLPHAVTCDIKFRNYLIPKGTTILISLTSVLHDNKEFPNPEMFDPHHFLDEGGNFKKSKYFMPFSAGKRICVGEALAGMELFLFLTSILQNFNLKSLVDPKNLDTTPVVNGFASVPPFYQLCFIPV
The experiment in a line: Inhibition of human liver microsomal P450 subenzyme CYP2C9. As to conditions: human liver microsomes, diclofenac metabolic site, 30 minutes incubation; read-out: 2C9 IC50. Type of assay: in vitro ADME. Here is the method:
as §1, §2, §3, §4
Background: Liver microsomes are vesicles of endoplasmic reticulum, rich in cytochrome P450 enzymes.

A further assay has as its system AMO-1 cells. The experiment in a line: Cell proliferation experiment (intracellular ATP, CellTiter-Glo), AMO-1. Type of assay: cell-based. The note with it: Homo sapiens, AMO1, 72 h; AMO-1 cells, incubated 3 days, CellTiter-Glo; read-out: AMO-1 IC50. Here is the method:
(§5) The following method evaluates the inhibition effect of the compound of the present invention on the proliferation of AMO-1 and MV-4-11 cells according to IC50 value by detecting intracellular ATP content. The experimental method is briefly described as follows.
1. AMO-1, human bone marrow plasmacytoma (Nanjing Cobioer Biosciences Co., Ltd., CBP60242)
(§6) AMO-1 cells were cultured in RPMI1640 medium (containing 20% FBS), and MV-4-11 cells were cultured in IMDM medium (containing 10% FBS). The cells were passaged for 2 to 3 times a week, with a passage ratio of 1:4 or 1:6. During the passage, the cells were transferred to a centrifuge tube and centrifuged at 1200 rpm for 3 minutes. The supernatant was discarded, and fresh medium was added to resuspend the cells. […] 100 μL of complete medium was added to the periphery of the 96-well plate. The plate was incubated in an incubator for 24 hours (37° C., 5% CO2).
(§7) The test sample was diluted to 20 mM with DMSO, and then diluted to 9 concentrations by diluting in 4-fold gradient. Blank and control wells were set. 5 μL of the test compound solution formulated as gradient concentration was added to 95 μL of fresh medium. 10 µL of the above drug-containing medium solution was added to the plate. The plate was incubated in an incubator for 3 days (37° C., 5% CO2). In the 96-well cell culture plate, 50 μL of CellTiter-Glo reagent was added to each well, and the plate was left to stand in the dark at room temperature for 5 to 10 minutes. The chemiluminescence signal value was read in PHERAstar, and the data was processed by GraphPad software.

A further assay has as its target T3, MCL-1 protein (Homo sapiens, UniProt Q07820).
T3 construct: Bim peptide bought from R&D, 3526/1 NA
The experiment in a line: MCL-1 protein binding experiment (HTRF, MCL-1/Bim). The note with it: for inhibition at up to 10 µM: HTRF MCL-1/Bim binding, initial concentration 10 μM, read-out: Maximum inhibition rate (%); for Ki: HTRF, 0.1 nM His-MCL-1, 2.5 nM bio-Bim, room temperature. Here is the method: The following method was used to determine the binding ability of the compound of the present invention to MCL-1 protein. The experimental method is briefly described as follows.
MCL-1 inhibitors can bind to MCL-1 protein to prevent the binding of MCL-1 to Bim protein. The experiment evaluates the binding ability of MCL-1 inhibitor to MCL-1 protein by detecting the binding of MCL-1 to Bim protein through HTRF method, and the activity of the compound was evaluated according to the Ki value.
The mixture was incubated at room temperature for 2 hours, followed by the detection of fluorescence signals at 620 nm and 665 nm by PHERAstar. The data was processed by GraphPad software.
For orientation: Time-resolved FRET reads energy transfer from a long-lived donor to a nearby acceptor.

In another assay the test system is MV-4-11 cells. Nature of the assay: Cell proliferation experiment (intracellular ATP, CellTiter-Glo), MV-4-11. The assay is classed as cell-based. The note with it: Homo sapiens, MV4-11, 72 h; MV-4-11 cells, incubated 3 days, CellTiter-Glo; read-out: MV-4-11 IC50. On the procedure: as §5, §6, §7
(In general: ATP-based viability assays read luminescence as a measure of living cells.)

SMILES strings stand for the structures. Some results are limits rather than exact numbers.

As usually defined, the IC50 is the midpoint of a concentration-inhibition curve. What is called inhibition is how much of the control response was suppressed. For orientation: Ki means a measure of affinity in units of concentration, obtained from inhibition or displacement. Low values mean tighter binding, high ones weaker binding.

T3 sequence (Q07820 171-327): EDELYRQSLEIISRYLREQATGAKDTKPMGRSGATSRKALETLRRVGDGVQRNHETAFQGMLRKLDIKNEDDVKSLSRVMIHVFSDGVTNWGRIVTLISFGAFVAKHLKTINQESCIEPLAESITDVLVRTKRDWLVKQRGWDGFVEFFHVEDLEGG
T1 sequence (P33261 whole entry): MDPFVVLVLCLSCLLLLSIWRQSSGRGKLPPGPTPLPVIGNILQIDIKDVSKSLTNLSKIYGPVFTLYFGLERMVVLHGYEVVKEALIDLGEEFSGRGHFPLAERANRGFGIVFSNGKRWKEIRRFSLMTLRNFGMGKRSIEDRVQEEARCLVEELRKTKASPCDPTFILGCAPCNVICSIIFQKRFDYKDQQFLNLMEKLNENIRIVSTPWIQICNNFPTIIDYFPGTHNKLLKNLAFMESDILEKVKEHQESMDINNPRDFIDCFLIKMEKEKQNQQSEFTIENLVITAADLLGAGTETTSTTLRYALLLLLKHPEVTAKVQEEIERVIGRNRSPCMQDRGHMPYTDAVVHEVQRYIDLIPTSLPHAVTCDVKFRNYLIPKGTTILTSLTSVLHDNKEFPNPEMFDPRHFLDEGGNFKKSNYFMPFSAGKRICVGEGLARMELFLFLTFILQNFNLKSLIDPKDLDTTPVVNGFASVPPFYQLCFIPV

Take `Cc1c(C(=O)O)n2c3ccc(Cl)c(c13)-c1c(nn(C)c1C)CSCc1cc(n(C)n1)CSc1cc3c(c(c1)OCCC2)CCC3` (single isomer, unassigned) [Example 13-1, (Ra)-17-Chloro-5,13,14,22-tetramethyl-28-oxa-2,9-dithia-5,6,12,13,24-pentaazaheptacyclo[27.6.1.1^4,7.0^11,15.0^16,21.0^20,24.0^30,34]heptatriaconta-1(36),4(37),6,11,14,16,18,20,22,29,34-undecaene-23-carboxylic acid]: the IC50 was more than 30000 nM at 2C19, 16600 nM at CYP2C9, 26 nM in the assay with AMO-1 cells and 26 nM in the assay with MV-4-11 cells. For the same compound, the inhibition at up to 10 µM on MCL-1 protein worked out at 100%. The compound further registered a Ki at MCL-1 protein of 0.16 nM.
Consider `Cc1c(C(=O)O)n2c3ccc(Cl)c(c13)-c1c(nn(C)c1C)CSCc1cc(n(C)n1)CSc1cc(cc3c1CCC3)OCCC2` (single isomer, unassigned) [Example 12-1, (Ra)-17-Chloro-5,13,14,22-tetramethyl-28-oxa-2,9-dithia-5,6,12,13,24-pentaazaheptacyclo[27.6.1.1^4,7.0^11,15.0^16,21.0^20,24.0^30,35]heptatriaconta-1(36),4(37),6,11,14,16,18,20,22,29,31(35)-undecaene-23-carboxylic acid], for which the IC50 was more than 30000 nM on 2C19, more than 30000 nM on CYP2C9, 34 nM in the assay on AMO-1 cells and 36 nM in the assay with MV-4-11 cells. Besides, at MCL-1 protein, the inhibition at up to 10 µM is 100%. The compound further displayed a Ki on MCL-1 protein of 0.24 nM.

Values taken from patent publication US20220041623A1, “INDOLE MACROCYCLIC DERIVATIVE, PREPARATION METHOD THEREOF AND APPLICATION THEREOF IN MEDICINE” (JIANGSU HENGRUI MEDICINE CO., LTD., priority 2018, published 2022).
